This is an account of results in US7745465B2, “Method of enhancing cellular production of molecular chaperone, hydroxylamine derivatives useful for enhancing the chaperone production and the preparation thereof” (CytRx Corporation, priority 1995, dated 2010).

Data set [1] concerns Grp94. As to the kind of experiment: Western blot of Grp94 in heat shocked H9c2 cells. The class given is cell-based, rat. Here is the method: (§1) Experiments set forth in this section were conducted to determine whether N-[2-hydroxy-3-(1-piperidinyl)propoxy]-3-pyridinecarboximidoyl chloride maleate acts to increase the expression of molecular chaperon by a cell. The accumulation of different heat shock proteins subsequent to a period of exposure to heat shock alone, and to heat shock in combination with N-[2-hydroxy-3-(1-piperidinyl)propoxy]-3-pyridinecarboximidoyl chloride maleate administration, was examined by adding 10^−5 M of N-[2-hydroxy-3-(1-piperidinyl)propoxy]-3-pyridinecarboximidoyl chloride maleate before, during, or immediately after hyperthermic treatment of heart myogenic cells (H9c2 cells).
(§2) The embryonic rat heart-derived cell line H9c2 was obtained from European Collection of Animal cell Cultures (ECACC) (88092904). The cells were maintained at 37° C. in Dulbecco's modified Eagle's medium (DMEM) supplemented with 10% fetal calf serum (GIBCO) in JOUAN C02 thermostat (5% CO2).
(§3) Heat shock was performed at 43° C. in CO2 thermostat for the given time intervals (20, 40, 60, 90 and 120 min.). Cells were then taken back to 37° C. for 6 hours and proteins were extracted for SDS-PAGE. […]
(§4) Protein concentration was determined from 5:1 samples by the Bradford assay (M. M. Braford, Anal. Biochem., 72: 248-254 (1976)) in three parallel. […]

For data set [2], the system named is Rats with genetic hypertension. As to the kind of experiment: Morphological examination of the thoracic aorta of rats with genetic hypertension. The class given is in vivo, rat. To be noted: daily oral treatment (20 mg/kg 8 days or 5 mg/kg 20 days). The procedure:
Rats with genetic hypertension were divided into four groups of four. The groups were treated daily, orally, the first group with physiological saline, the second group with N-[2-hydroxy-3-(1-piperidinyl)]-propoxy-3-pyridine-carboximidoyl-chloride maleate (20 mg/kg) for 8 days, the third group with N-[2-hydroxy-3-(1-piperidinyl)-propoxy]-benzimidoyl-chloride monohydrochloride (5 mg/kg) for 20 days and the fourth group with N-[2-hydroxy-3-(1-piperidinyl)-propoxy]-2-thiophenecarboximidoyl-chloride monohydrochloride (5 mg/kg) for 20 days. Animals were sacrificed, aortas were isolated, snap frozen in liquid nitrogen and were stored at −70° C. till they were used.
The examination was performed according to published methods (Br. J. of Pharmacol., 1995; 115, […]). A 1 mm^2 area of the thoracic aorta was excised and fixed in 2.5% glutaral-dehyde at room temperature. Post fixation was performed in 1% osmium-tetroxide for one hour. The tissue was dehydrated in ethanol and was embedded in Durcupan ACM. Pictures were taken by a Hitachi 7100 electronmicroscope and were evaluated qualitatively.

The subject of data set [3] is Hsp72. As to the kind of experiment: Western blot of hsp72 in heat shocked H9c2 cells. The class given is cell-based, rat. The procedure: as §1, §2, §3, §4
The test system of data set [4] is HaCaT cells. As to the kind of experiment: Protection of HaCaT keratinocytes against 48° C. heat exposure (viability). The class given is cell-based, human. The text has this: HaCaT cell line is a spontaneously immortalized, ancuploid human keratinocyte cell line derived from normal human adult skin (Boukamp et al., J. Cell Biol. 106:761-771 (1988)), HaCaT is a cell line with full epidermal differentiation capacity, with normal keratinization and with nontumorogenic character. This rapidly multiplying keratinocyte line with high ditharnol sensitivity is also characterized by the presence of steroid receptors. HaCaT cells (4×10^5 cells per Petri-dish with a diameter of 35 mm) were seeded and grown in DMEM supplemented with 5% fetal calf serum (Gibco, Cat. No. 011-6290H) under a humidified atmosphere of 5% CO2 at 37° C. 24 hours after plating, the cultures were rinsed with PBS and treated by heat or light.
The confluent cultures of the cells were exposed to heat (42, 44, 46, 47, 48° C.) or UV light (UVA I, 2, 4, 6 J/cm^2). Heat exposure was provided in circulating water baths. As a UV light source, Waldmann PUVA 4000 was used with an energy spectrum of the final output between 320 an 390 nm, peaking at 365 nm. The energy output was monitored by an IL-1700 radiometer equipped with UVA and UVB sensor.
The morphology of the cells was monitored using phase contrast microscopy (Opton Axioplan Microscope, with Plan-Apochromat Ph phase contrast objectives). […]

Data set [5] deals with HSPs. Put plainly: Western blot overview of all HSPs in heat shocked H9c2 heart cells. The class given is cell-based, rat. The note with it: added 16 hours before the heat treatment. The procedure: as §1, §2, §3, §4
(Immunoblotting shows a protein as a band on a membrane.)

With `O=C(O)/C=C\C(=O)O.OC(CON=C(Cl)c1cccnc1)CN1CCCCC1` (centres unmarked) [N-[2-hydroxy-3-(1-piperidinyl)-propoxy]3-pyridinecarboximidoyl chloride maleate], in data set [1] (addition during recovery from heat stress lasting for 40 to 60 min.), the “effect on Grp94 level” value is on record as “almost effective as the administration”. The “increase of Grp94 compared to 43° C. treatment” value in data set [1] (preaddition of the drug combined with a 20 min. long heat shock) turned out to be 4 times. The “regeneration of the cells of aorta” value in data set [2] was “facilitated the regeneration of the cells of aorta”. In data set [3] (added during the recovery phase), the “effect on hsp72 level” value is given as “also effective though to a lesser degree”. Also, the “hsp72 level increased when comparing to 37° C. samples” value in data set [3] (administration before heat stress, 60 min. heat stress) was “about 50 times”. For the same compound, in data set [4] (combined treatment with 42° C. and compound, 24 hours after 48° C.), the increase in viability was determined as 140%. The “cell viability increased to” value in data set [4] (pre-treatment 5×10^-5 M for one hour, 24 hours after the 48° C. treatment) is on record as 84%. Further, the “level of all HSPs increased further as compared to that observed upon heat stress” value in data set [5] is on record as “at least twofold”.
